Test results taken from EP0075629A1, “Imidazole derivatives, their preparation, and their pharmaceutical compositions” (Sumitomo Chemical Industries Ltd., priority 1981, dated 1983).

Tested on: Lewis lung carcinoma (solid)
Experiment: Antitumor effect on mouse experimental tumors (tumor inhibitory ratio by tumor weight)
Assay type: in vivo
Conditions: Dose 100 mg/kg, route i.p., schedule 5q2d (days 1, 3, 5, 7 and 9); tumors removed and weighed at day 13; BDF1 male mice
Protocol: The antitumor activities of compounds of the present invention were estimated according to the methods described in "Cancer chemotheraphy reports" Part 3, Vol. 3, (No. 2) p.13 (1972).
BDF1 male mice, 5 weeks old, weighing between 18 and 22 grams were used. Each test group was composed of 6 to 7 mice. Two million cells of Lewis lung carcinoma were injected in the hind leg. The drug was administered intraperitoneally at days 1, 3, 5, 7 and 9 (or 5q2d).
After killing the mice at day 13, tumors were removed and weighed. The tumor inhibitory ratio was calculated according to the following formula: [formula]

Compound	Inhibition Ratio (%) Lewis lung carcinoma (solid)
NC(=O)c1[nH]cnc1OC(=O)c1ccc(-c2ccccc2)cc1 [5-Carbamoyl-1H-imidazole-4-yl p-phenylbenzoate]	77.0%
COc1ccc(C(=O)Oc2nc[nH]c2C(N)=O)cc1OC [5-Carbamoyl-1H-imidazole-4-yl 3',4'-dimethoxy-benzoate]	83.1%
NC(=O)c1[nH]cnc1OC(=O)C=Cc1cccc([N+](=O)[O-])c1 [5-Carbamoyl-1H-imidazole-4-yl m-nitrocinnamate]	90%
COc1cc(C(=O)Oc2nc[nH]c2C(N)=O)ccc1C [5-Carbamoyl-1H-imidazole-4-yl 3'-methoxy-4'-methylbenzoate]	89.4%
NC(=O)c1[nH]cnc1OC(=O)C=Cc1ccc(Cl)cc1 [5-Carbamoyl-1H-imidazole-4-yl p-chlorocinnamate]	90%
